Results: ChEMBL document CHEMBL4387741, “Optimization of novel reversible Bruton's tyrosine kinase inhibitors identified using Tethering-fragment-based screens” (Bioorg Med Chem, 2019)

Experiments:
[1] = target: AP2-associated protein kinase 1 (Homo sapiens) (UniProt Q2M2I8); assay: Inhibition of human wild-type AAK1 (G25 to L333 residues) expressed in bacterial expression system at 1 uM by Kinomescan method relative to control
[2] = target: Serine/threonine-protein kinase 17B (Homo sapiens) (UniProt O94768); assay: Inhibition of wild-type human full length DRAK2 (M1 to C372 residues) expressed in bacterial expression system at 1 uM by Kinomescan method relative to control
[3] = target: Tyrosine-protein kinase Lck (Homo sapiens) (UniProt P06239); assay: Inhibition of wild-type human partial length LCK (R207 to P509 residues) expressed in bacterial expression system at 1 uM by Kinomescan method relative to control
[4] = target: Mitogen-activated protein kinase kinase kinase 3 (Homo sapiens) (UniProt Q99759); assay: Inhibition of wild-type human partial length MAP3K3 (E320 to Y626 residues) expressed in mammalian expression system at 1 uM by Kinomescan method relative to control
[5] = target: Mitogen-activated protein kinase 12 (Homo sapiens) (UniProt P53778); assay: Inhibition of wild-type human full length p38-gamma (M1 to L367 residues) expressed in mammalian expression system at 1 uM by Kinomescan method relative to control
[6] = target: Phosphorylase b kinase gamma catalytic chain, skeletal muscle/heart isoform (Homo sapiens) (UniProt Q16816); assay: Inhibition of wild-type human full length PHKG1 (M1 to Y387 residues) expressed in bacterial expression system at 1 uM by Kinomescan method relative to control
[7] = target: Phosphatidylinositol 5-phosphate 4-kinase type-2 gamma (Homo sapiens) (UniProt Q8TBX8); assay: Inhibition of wild-type human partial length PIP5K2C (M1 to A421 residues) expressed in mammalian expression system at 1 uM by Kinomescan method relative to control
[8] = target: cAMP-dependent protein kinase catalytic subunit PRKX (Homo sapiens) (UniProt P51817); assay: Inhibition of wild-type human partial length PRKX (M1 to F358 residues) expressed in bacterial expression system at 1 uM by Kinomescan method relative to control
[9] = target: Serine/threonine-protein kinase TBK1 (Homo sapiens) (UniProt Q9UHD2); assay: Inhibition of wild-type human full length TBK1 (M1 to L729 residues) expressed in mammalian expression system at 1 uM by Kinomescan method relative to control
[10] = target: TGF-beta receptor type-2 (Homo sapiens) (UniProt P37173); assay: Inhibition of wild-type human partial length TGFBR2 (I218 to K567 residues) expressed in bacterial expression system at 1 uM by Kinomescan method relative to control
[11] = target: Tyrosine-protein kinase receptor Tie-1 (Homo sapiens) (UniProt P35590); assay: Inhibition of wild-type human partial length TIE1 (T819 to A1138 residues) expressed in bacterial expression system at 1 uM by Kinomescan method relative to control
[12] = target: Activated CDC42 kinase 1 (Homo sapiens) (UniProt Q07912); assay: Inhibition of wild-type human partial length TNK2 (S159 to D474 residues) expressed in bacterial expression system at 1 uM by Kinomescan method relative to control
[13] = target: Transient receptor potential cation channel subfamily M member 6 (Homo sapiens) (UniProt Q9BX84); assay: Inhibition of wild-type human partial length TRPM6 (Q1723 to I1998 residues) expressed in mammalian expression system at 1 uM by Kinomescan method relative to control
[14] = target: Dual specificity protein kinase TTK (Homo sapiens) (UniProt P33981); assay: Inhibition of wild-type human partial length TTK (N505 to V798 residues) expressed in bacterial expression system at 1 uM by Kinomescan method relative to control
[15] = target: Serine/threonine-protein kinase ULK3 (Homo sapiens) (UniProt Q6PHR2); assay: Inhibition of wild-type human partial length ULK3 (M1 to Q290 residues) expressed in mammalian expression system at 1 uM by Kinomescan method relative to control
[16] = target: Cyclin-dependent kinase-like 3 (Homo sapiens) (UniProt Q8IVW4); assay: Inhibition of wild-type human partial length CDKL3 (M1 to D327 residues) expressed in bacterial expression system at 10 uM by Kinomescan method relative to control
[17] = target: Epithelial discoidin domain-containing receptor 1 (Homo sapiens) (UniProt Q08345); assay: Inhibition of wild-type human partial length DDR1 (R565 to V876 residues) expressed in bacterial expression system at 10 uM by Kinomescan method relative to control
[18] = target: Myotonin-protein kinase (Homo sapiens) (UniProt Q09013); assay: Inhibition of wild-type human partial length DMPK (V47 to V415 residues) expressed in bacterial expression system at 10 uM by Kinomescan method relative to control
[19] = target: Homeodomain-interacting protein kinase 4 (Homo sapiens) (UniProt Q8NE63); assay: Inhibition of wild-type human partial length HIPK4 (M1 to V384 residues) expressed in bacterial expression system at 10 uM by Kinomescan method relative to control
[20] = target: Insulin receptor (Homo sapiens) (UniProt P06213); assay: Inhibition of wild-type human partial length INSR (P997 to E1318 residues) expressed in mammalian expression system at 10 uM by Kinomescan method relative to control
[21] = test system: Mast/stem cell growth factor receptor Kit (Homo sapiens), P10721 [V559D,T670I]; assay: Inhibition of human partial length KIT V559D/T670I double mutant (Y545 to D952 residues) expressed in bacterial expression system at 10 uM by Kinomescan method relative to control
[22] = target: Dual specificity mitogen-activated protein kinase kinase 1 (Homo sapiens) (UniProt Q02750); assay: Inhibition of wild-type human full length MEK1 (M1 to V393 residues) expressed in mammalian expression system at 10 uM by Kinomescan method relative to control
[23] = target: Serine/threonine-protein kinase Nek7 (Homo sapiens) (UniProt Q8TDX7); assay: Inhibition of wild-type human full length NEK7 (M1 to S302 residues) expressed in bacterial expression system at 10 uM by Kinomescan method relative to control
[24] = target: Phosphatidylinositol 4-phosphate 3-kinase C2 domain-containing subunit beta (Homo sapiens) (UniProt O00750); assay: Inhibition of wild-type human partial length PIK3C2B (M1 to L1634 residues) expressed in mammalian expression system at 10 uM by Kinomescan method relative to control
[25] = test system: Phosphatidylinositol 4,5-bisphosphate 3-kinase catalytic subunit alpha isoform (Homo sapiens), P42336 [Q546K]; assay: Inhibition of human partial length PIK3CA Q546K mutant (R108 to N1068 residues) expressed in mammalian expression system at 10 uM by Kinomescan method relative to control
[26] = target: Ribosomal protein S6 kinase alpha-3 (Homo sapiens) (UniProt P51812); assay: Inhibition of wild-type human partial length N-terminal RSK2 kinase domain 1 (M1 to D394 residues) expressed in mammalian expression system at 10 uM by Kinomescan method relative to control
[27] = target: TGF-beta receptor type-2 (Homo sapiens) (UniProt P37173); assay: Inhibition of wild-type human partial length TGFBR2 (I218 to K567 residues) expressed in bacterial expression system at 10 uM by Kinomescan method relative to control

Chain of TGF-beta receptor type-2 (Homo sapiens) (P37173 whole entry, the tested form may be a part): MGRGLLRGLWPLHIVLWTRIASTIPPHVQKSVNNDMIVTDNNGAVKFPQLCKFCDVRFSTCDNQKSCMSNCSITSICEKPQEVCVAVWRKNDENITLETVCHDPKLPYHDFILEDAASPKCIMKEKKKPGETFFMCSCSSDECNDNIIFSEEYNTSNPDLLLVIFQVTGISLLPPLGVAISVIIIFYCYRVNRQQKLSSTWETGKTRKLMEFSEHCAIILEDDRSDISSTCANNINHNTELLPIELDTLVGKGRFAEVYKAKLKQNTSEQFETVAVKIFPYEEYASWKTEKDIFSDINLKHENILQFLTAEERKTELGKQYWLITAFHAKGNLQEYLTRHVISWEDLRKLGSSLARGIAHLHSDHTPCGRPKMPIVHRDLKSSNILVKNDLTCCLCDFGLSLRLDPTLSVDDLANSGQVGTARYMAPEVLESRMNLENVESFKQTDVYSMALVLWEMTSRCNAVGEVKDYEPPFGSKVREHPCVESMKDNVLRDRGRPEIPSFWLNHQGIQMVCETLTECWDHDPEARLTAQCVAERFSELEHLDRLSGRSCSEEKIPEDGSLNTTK
Chain of Phosphatidylinositol 5-phosphate 4-kinase type-2 gamma (Homo sapiens) (Q8TBX8 whole entry, the tested form may be a part): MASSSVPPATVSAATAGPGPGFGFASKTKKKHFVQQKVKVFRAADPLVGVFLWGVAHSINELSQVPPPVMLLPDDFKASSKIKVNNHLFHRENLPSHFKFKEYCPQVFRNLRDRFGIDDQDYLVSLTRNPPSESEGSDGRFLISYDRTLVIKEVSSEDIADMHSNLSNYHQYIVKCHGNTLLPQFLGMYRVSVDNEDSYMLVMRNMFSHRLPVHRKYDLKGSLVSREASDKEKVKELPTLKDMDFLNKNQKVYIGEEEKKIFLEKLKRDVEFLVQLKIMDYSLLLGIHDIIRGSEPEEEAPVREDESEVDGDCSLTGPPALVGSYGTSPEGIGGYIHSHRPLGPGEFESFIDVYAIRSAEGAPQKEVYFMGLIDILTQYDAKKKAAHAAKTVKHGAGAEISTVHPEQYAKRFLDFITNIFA
Chain of Serine/threonine-protein kinase ULK3 (Homo sapiens) (Q6PHR2 whole entry, the tested form may be a part): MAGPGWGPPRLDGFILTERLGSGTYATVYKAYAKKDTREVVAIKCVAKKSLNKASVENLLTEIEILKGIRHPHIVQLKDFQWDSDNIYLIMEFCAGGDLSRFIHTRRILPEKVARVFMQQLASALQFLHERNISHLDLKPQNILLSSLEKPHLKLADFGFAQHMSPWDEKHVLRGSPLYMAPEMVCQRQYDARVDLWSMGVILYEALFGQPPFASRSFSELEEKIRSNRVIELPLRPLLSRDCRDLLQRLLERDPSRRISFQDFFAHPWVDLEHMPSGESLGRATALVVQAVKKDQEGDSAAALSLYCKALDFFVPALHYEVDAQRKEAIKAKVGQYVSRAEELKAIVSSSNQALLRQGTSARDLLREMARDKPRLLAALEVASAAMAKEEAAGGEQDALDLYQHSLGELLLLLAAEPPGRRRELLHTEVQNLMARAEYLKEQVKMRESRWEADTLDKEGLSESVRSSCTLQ
Chain of Phosphatidylinositol 4-phosphate 3-kinase C2 domain-containing subunit beta (Homo sapiens) (O00750 whole entry, the tested form may be a part, canonical isoform): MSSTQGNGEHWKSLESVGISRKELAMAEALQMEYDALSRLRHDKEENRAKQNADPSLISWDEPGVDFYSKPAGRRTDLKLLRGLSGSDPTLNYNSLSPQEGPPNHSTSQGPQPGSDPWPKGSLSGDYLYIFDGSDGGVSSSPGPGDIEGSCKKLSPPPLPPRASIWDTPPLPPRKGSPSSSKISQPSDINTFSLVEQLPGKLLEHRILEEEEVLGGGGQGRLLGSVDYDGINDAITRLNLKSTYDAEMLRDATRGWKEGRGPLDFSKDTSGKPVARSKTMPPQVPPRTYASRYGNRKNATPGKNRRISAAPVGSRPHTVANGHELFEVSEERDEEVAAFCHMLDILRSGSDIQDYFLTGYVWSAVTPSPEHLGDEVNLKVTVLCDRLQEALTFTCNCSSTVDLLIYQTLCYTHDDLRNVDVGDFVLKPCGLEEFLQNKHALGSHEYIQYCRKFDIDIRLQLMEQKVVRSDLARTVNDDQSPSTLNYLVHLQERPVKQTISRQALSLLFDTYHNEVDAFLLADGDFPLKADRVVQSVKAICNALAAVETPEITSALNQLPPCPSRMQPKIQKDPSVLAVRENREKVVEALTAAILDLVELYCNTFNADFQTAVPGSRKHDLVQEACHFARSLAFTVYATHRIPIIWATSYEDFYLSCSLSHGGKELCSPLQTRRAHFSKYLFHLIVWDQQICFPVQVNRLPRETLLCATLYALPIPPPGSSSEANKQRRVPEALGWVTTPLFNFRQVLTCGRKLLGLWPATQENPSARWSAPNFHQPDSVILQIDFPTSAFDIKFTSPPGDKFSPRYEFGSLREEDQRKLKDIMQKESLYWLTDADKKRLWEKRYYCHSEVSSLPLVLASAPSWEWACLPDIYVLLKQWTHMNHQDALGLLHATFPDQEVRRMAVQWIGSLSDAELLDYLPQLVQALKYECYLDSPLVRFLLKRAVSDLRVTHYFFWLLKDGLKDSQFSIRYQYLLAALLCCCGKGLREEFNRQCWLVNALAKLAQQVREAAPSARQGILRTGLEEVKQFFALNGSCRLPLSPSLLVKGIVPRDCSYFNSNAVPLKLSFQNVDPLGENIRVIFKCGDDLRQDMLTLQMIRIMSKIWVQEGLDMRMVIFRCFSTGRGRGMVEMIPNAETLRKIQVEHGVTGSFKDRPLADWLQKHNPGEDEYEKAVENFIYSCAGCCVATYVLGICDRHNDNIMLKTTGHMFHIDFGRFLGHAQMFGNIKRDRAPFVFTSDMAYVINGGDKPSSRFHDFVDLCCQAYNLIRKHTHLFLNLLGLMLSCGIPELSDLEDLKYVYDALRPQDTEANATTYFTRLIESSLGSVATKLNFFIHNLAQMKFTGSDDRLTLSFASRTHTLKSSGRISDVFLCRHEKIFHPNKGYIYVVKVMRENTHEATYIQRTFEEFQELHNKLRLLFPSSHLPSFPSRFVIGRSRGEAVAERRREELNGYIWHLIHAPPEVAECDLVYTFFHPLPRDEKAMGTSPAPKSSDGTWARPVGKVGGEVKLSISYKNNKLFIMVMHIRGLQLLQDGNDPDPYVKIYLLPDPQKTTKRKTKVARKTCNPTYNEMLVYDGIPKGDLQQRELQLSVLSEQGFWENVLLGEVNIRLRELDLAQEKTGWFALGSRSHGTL
Chain of Tyrosine-protein kinase Lck (Homo sapiens) (P06239 2-509 limits assumed): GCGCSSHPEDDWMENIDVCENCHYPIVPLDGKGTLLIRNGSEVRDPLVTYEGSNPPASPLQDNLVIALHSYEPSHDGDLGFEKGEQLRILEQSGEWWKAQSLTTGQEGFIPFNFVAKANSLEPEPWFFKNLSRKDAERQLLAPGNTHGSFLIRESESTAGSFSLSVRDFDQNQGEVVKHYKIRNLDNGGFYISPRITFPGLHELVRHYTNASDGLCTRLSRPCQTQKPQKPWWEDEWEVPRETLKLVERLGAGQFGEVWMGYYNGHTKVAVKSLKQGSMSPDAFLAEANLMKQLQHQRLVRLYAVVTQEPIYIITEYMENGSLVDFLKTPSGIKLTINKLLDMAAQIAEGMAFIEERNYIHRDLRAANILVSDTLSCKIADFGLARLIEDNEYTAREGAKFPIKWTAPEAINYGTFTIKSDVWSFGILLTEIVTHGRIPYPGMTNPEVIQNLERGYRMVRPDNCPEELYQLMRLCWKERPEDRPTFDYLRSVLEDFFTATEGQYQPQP
Chain of Epithelial discoidin domain-containing receptor 1 (Homo sapiens) (Q08345 whole entry, the tested form may be a part): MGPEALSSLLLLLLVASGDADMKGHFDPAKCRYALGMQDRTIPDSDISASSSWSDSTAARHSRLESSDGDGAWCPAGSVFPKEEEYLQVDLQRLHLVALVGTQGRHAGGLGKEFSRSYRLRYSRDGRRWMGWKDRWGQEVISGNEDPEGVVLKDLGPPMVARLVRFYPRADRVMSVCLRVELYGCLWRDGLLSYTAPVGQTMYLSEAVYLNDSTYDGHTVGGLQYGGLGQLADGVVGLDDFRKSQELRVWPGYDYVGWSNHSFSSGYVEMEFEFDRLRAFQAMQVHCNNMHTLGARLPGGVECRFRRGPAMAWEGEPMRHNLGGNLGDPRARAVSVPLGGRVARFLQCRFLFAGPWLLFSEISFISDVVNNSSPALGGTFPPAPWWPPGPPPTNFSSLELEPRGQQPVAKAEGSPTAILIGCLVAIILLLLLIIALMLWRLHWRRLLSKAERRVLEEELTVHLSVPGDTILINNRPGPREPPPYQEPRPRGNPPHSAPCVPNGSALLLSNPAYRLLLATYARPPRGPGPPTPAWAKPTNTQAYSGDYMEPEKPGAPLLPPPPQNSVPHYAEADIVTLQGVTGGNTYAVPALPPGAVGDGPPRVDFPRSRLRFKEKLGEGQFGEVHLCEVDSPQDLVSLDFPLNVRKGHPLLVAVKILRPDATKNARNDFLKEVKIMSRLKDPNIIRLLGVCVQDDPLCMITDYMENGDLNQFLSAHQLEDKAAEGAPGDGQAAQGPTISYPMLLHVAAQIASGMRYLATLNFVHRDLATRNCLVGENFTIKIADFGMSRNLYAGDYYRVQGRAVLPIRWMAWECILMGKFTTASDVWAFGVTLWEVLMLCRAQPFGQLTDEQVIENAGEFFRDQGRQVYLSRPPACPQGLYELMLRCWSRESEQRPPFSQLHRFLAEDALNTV
Chain of Mitogen-activated protein kinase 12 (Homo sapiens) (P53778 whole entry, the tested form may be a part, canonical isoform): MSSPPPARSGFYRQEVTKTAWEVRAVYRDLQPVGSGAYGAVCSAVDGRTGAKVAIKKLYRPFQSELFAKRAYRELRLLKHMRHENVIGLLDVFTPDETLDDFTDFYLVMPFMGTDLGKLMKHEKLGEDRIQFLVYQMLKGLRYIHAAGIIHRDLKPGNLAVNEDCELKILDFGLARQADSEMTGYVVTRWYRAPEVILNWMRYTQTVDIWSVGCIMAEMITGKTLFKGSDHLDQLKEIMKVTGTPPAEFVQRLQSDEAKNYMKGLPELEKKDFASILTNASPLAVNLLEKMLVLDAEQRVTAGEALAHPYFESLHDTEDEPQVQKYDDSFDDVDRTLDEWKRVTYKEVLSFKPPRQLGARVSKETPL

In the case of `O=C(Nc1cccc([C@@H]2CN(c3ncnc4[nH]ccc34)CCN2CCO)c1)Nc1c(F)cccc1N1CCCC1`, the inhibition [1] is reported as 75%, the inhibition [2] is reported as 73% and the inhibition [3] is reported as 56%. It also gave an inhibition [4] of 42%, an inhibition [5] of 81% and an inhibition [6] of 98%. For the same compound, the inhibition [7] was 83%, the inhibition [8] was 95% and the inhibition [9] was 81%. For the same compound, the inhibition [10] was 100%, the inhibition [11] was 99% and the inhibition [12] was 100%. For the same compound, the inhibition [13] was 65%, the inhibition [14] was 98% and the inhibition [15] was 11%.
Work on `O=C(Nc1cccc([C@H]2CCCN(c3ncnc4[nH]ccc34)C2)c1)Nc1ccccc1N1CCCC1` yielded an inhibition [16] of 97%, an inhibition [17] of 3.5% and an inhibition [18] of 100%. For the same compound, the inhibition [19] was 100%, the inhibition [20] was 81% and the inhibition [21] was 0.3%. For the same compound, the inhibition [22] was 14%, the inhibition [23] was 72% and the inhibition [24] was 51%. It also gave an inhibition [25] of 81%, an inhibition [26] of 57% and an inhibition [27] of 100%.
